In patent publication US10800792B2, “Inhibitors of Bruton's tyrosine kinase and method of their use” (JANSSEN PHARMACEUTICA NV, priority 2015, dated 2020):

target: unphosphorylated-BTK kinase domain (UP-BTK), GST-tagged human BTK (389-659aa) (Homo sapiens (Human), UniProt Q06187); assay: BTK kinase Lanthascreen binding assay; details: Lanthascreen tracer competition, 60 minutes incubation; pIC50 = negative log of the IC50 in molar
Procedure, shortened: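 A fluorescent tracer is bound to unphosphorylated BTK; test compound is added to compete it off; the Lanthascreen signal is read and IC50 is fitted, then reported as its negative log in molar.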

Chain of unphosphorylated-BTK kinase domain (UP-BTK), GST-tagged human BTK (389-659aa) (Q06187 389-659): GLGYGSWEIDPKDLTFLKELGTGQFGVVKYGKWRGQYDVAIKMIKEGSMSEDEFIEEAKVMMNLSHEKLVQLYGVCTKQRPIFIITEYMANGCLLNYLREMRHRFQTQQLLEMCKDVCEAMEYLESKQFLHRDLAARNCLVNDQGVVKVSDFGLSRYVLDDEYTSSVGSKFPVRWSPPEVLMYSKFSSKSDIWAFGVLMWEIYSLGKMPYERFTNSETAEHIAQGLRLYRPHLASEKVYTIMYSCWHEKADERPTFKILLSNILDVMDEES

Point of comparison: `C=CC(=O)N1CC[C@H](NC(=O)c2sc3nccc4c3c2NC(=O)N4c2ccc(Oc3ccccc3)cc2C)C1` [Example 864, (S)—N-(1-Acryloylpyrrolidin-3-yl)-5-(2-methyl-4-phenoxyphenyl)-4-oxo-4,5-dihydro-3H-1-thia-3,5,8-triazaacenaphthylene-2-carboxamide], “BTK_I_binding pIC50” value 7.3. Against it:
- C=CC(=O)N1C[C@@H](O)C[C@@H](NC(=O)c2sc3nccc4c3c2NC(=O)N4c2cccc(-c3cccc(F)c3F)c2)C1 [Example 674, N-((3R,5S)-1-Acryloyl-5-hydroxypiperidin-3-yl)-5-(2′,3′-difluoro-[1,1′-biphenyl]-3-yl)-4-oxo-4,5-dihydro-3H-1-thia-3,5,8-triazaacenaphthylene-2-carboxamide] — higher, 8.2
- Cc1cc(OC2CCCC2)ncc1N1C(=O)Nc2c(C(=O)N[C@@H]3CCCNC3)sc3nccc1c23 (single isomer, unassigned) [Example 761, (R)-5-(*S)-(6-(Cyclopentyloxy)-4-methylpyridin-3-yl)-4-oxo-N-(piperidin-3-yl)-4,5-dihydro-3H-1-thia-3,5,8-triazaacenaphthylene-2-carboxamide] — lower, 7.1
- O=C(N[C@@H]1CCCNC1)c1sc2nccc3c2c1NC(=O)N3c1ccc2c(c1)OC(F)(F)O2 [Example 636, (R)-5-(2,2-Difluorobenzo[d][1,3]dioxol-5-yl)-4-oxo-N-(piperidin-3-yl)-4,5-dihydro-3H-1-thia-3,5,8-triazaacenaphthylene-2-carboxamide] — lower, 5.7
- Cc1cc(Oc2ccccc2)ccc1N1C(=O)Nc2c(NC(=O)C3CCN(C(=O)CC#N)CC3)sc3nccc1c23 [Example 819, 1-(2-Cyanoacetyl)-N-(5-(2-methyl-4-phenoxyphenyl)-4-oxo-4,5-dihydro-3H-1-thia-3,5,8-triazaacenaphthylen-2-yl)piperidine-4-carboxamide] — lower, 5.9
- CC(=O)N1CCC[C@@H](NC(=O)c2sc3nccc4c3c2NC(=O)N4c2ccc(Oc3ccccn3)cc2C)C1 [Example 800, (R)—N-(1-Acetylpiperidin-3-yl)-5-(2-methyl-4-(pyridin-2-yloxy)phenyl)-4-oxo-4,5-dihydro-3H-1-thia-3,5,8-triazaacenaphthylene-2-carboxamide] — lower, 6.2
- C=CC(=O)N1CCC[C@@H](NC(=O)c2sc3nccc4c3c2NC(=O)N4c2ccc(OC3CCC3)nc2)C1 [Example 687, (R)—N-(1-Acryloylpiperidin-3-yl)-5-(6-cyclobutoxypyridin-3-yl)-4-oxo-4,5-dihydro-3H-1-thia-3,5,8-triazaacenaphthylene-2-carboxamide] — higher, 7.5
- C=CC(=O)N1CCC[C@@H](NC(=O)c2sc3nccc4c3c2NC(=O)N4c2ccc(Oc3ccc(C)cn3)cc2)C1 [Example 786, (R)—N-(1-Acryloylpiperidin-3-yl)-5-(4-((5-methylpyridin-2-yl)oxy)phenyl)-4-oxo-4,5-dihydro-3H-1-thia-3,5,8-triazaacenaphthylene-2-carboxamide] — lower, 6.9

same assay, conditions: Lanthascreen tracer competition, 60 minutes incubation; pIC50 = negative log of the IC50 in molar; read-out: BTK_I_binding pIC50 (converted)

`C=CC(=O)N1CCC[C@@H](NC(=O)c2sc3nccc4c3c2NC(=O)N4c2cnc(CC(C)C)cc2C)C1` (mixture of isomers) [Example 671, (R)—N-(1-Acryloylpiperidin-3-yl)-5-(6-isobutyl-4-methylpyridin-3-yl)-4-oxo-4,5-dihydro-3H-1-thia-3,5,8-triazaacenaphthylene-2-carboxamide] showed an IC50 of 25.1 nM.

same assay, conditions: pIC50 = negative log of the IC50 in molar; 60 minutes incubation, 50 nM Tracer 236

Point of comparison: `Cc1cc(Oc2ccccc2)ccc1N1C(=O)Nc2c(C(=O)NC3CN(C4CC4)C3)sc3nccc1c23` [Example 230, N-(1-Cyclopropylazetidin-3-yl)-5-(2-methyl-4-phenoxyphenyl)-4-oxo-4,5-dihydro-3H-1-thia-3,5,8-triazaacenaphthylene-2-carboxamide], “BTK_I_binding pIC50” value 6.4. Against it:
- Cc1cc(Oc2ccccc2F)ccc1N1C(=O)Nc2c(C(=O)NC3CCCN(C)C3)sc3nccc1c23 (stereo in doubt) [Example 57, (R)-5-(4-(2-Fluorophenoxy)-2-methylphenyl)-N-(1-methylpiperidin-3-yl)-4-oxo-4,5-dihydro-3H-1-thia-3,5,8-triazaacenaphthylene-2-carboxamide] — higher, 6.8
- N#C/C(=C\C1CC1)C(=O)N1CCC[C@@H](NC(=O)c2sc3nccc4c3c2NC(=O)N4c2ccc(Oc3ccccc3)cc2F)C1 [Example 79, (R,E)-N-(1-(2-Cyano-3-cyclopropylacryloyl)piperidin-3-yl)-5-(2-fluoro-4-phenoxyphenyl)-4-oxo-4,5-dihydro-3H-1-thia-3,5,8-triazaacenaphthylene-2-carboxamide] — higher, 7.5
- CN1CCC[C@@H](NC(=O)c2sc3nccc4c3c2NC(=O)N4c2ccc(Oc3ccccc3)cc2Cl)C1 [Example 133, (R)-5-(2-Chloro-4-phenoxyphenyl)-N-(1-methylpiperidin-3-yl)-4-oxo-4,5-dihydro-3H-1-thia-3,5,8-triazaacenaphthylene-2-carboxamide] — higher, 7.0

same assay, conditions: pIC50 = negative log of the IC50 in molar; 60 minutes incubation, 50 nM Tracer 236; read-out: BTK_I_binding pIC50 (converted)

In the case of `C=CC(=O)N1C[C@H](F)C[C@@H](NC(=O)c2sc3nccc4c3c2NC(=O)N4c2ccc(Oc3ccccc3)cc2C)C1` [Example 1, N-((3R,5R)-1-Acryloyl-5-fluoropiperidin-3-yl)-5-(2-methyl-4-phenoxyphenyl)-4-oxo-4,5-dihydro-3H-1-thia-3,5,8-triazaacenaphthylene-2-carboxamide], the IC50 is reported as 20 nM.

same assay, conditions: unphosphorylated-BTK kinase domain, 50 nM Tracer 236, 60 minutes; pIC50 = negative log of the IC50 in molar

Point of comparison: `Cc1cc(Oc2ccccc2)ccc1N1C(=O)Nc2c(C(=O)N[C@H]3CNC(=O)C3)sc3nccc1c23` (single isomer, unassigned) [Example 471, (*R)-5-(*S)-(2-Methyl-4-phenoxyphenyl)-4-oxo-N-(5-oxopyrrolidin-3-yl)-4,5-dihydro-3H-1-thia-3,5,8-triazaacenaphthylene-2-carboxamide], “BTK_I_binding pIC50” value 5.9. Against it:
- CNC/C=C/C(=O)N1CC[C@@H](NC(=O)c2sc3nccc4c3c2NC(=O)N4c2ccc(Oc3ccccc3)cc2C)C1 (single isomer, unassigned) [Example 492, (R,E)-5-(*S)-(2-Methyl-4-phenoxyphenyl)-N-(1-(4-(methylamino)but-2-enoyl)pyrrolidin-3-yl)-4-oxo-4,5-dihydro-3H-1-thia-3,5,8-triazaacenaphthylene-2-carboxamide] — higher, 8.0
- Cc1cc(Oc2cc(F)cc(F)c2)ccc1N1C(=O)Nc2c(C(=O)N[C@@H]3CCCN(C)C3)sc3nccc1c23 [Example 286, (R)-5-(4-(3,5-Difluorophenoxy)-2-methylphenyl)-N-(1-methylpiperidin-3-yl)-4-oxo-4,5-dihydro-3H-1-thia-3,5,8-triazaacenaphthylene-2-carboxamide] — higher, 6.2
- Cc1cc(Oc2cccnc2)ccc1N1C(=O)Nc2c(C(=O)N[C@@H]3CCCN(C)C3)sc3nccc1c23 [Example 293, (R)-5-(2-Methyl-4-(pyridin-3-yloxy)phenyl)-N-(1-methylpiperidin-3-yl)-4-oxo-4,5-dihydro-3H-1-thia-3,5,8-triazaacenaphthylene-2-carboxamide] — higher, 6.1
- C=CC(=O)N1CCC[C@@H](NC(=O)c2sc3nccc4c3c2NC(=O)N4c2cccc(-c3ccccc3Cl)c2)C1 [Example 510, (R)—N-(1-Acryloylpiperidin-3-yl)-5-(2′-chloro-[1,1′-biphenyl]-3-yl)-4-oxo-4,5-dihydro-3H-1-thia-3,5,8-triazaacenaphthylene-2-carboxamide] — higher, 8.0
- CCS(=O)(=O)N1CCC[C@@H](NC(=O)c2sc3nccc4c3c2NC(=O)N4c2ccc(Oc3ccccc3)cc2C)C1 (single isomer, unassigned) [Example 539, (R)—N-(1-(Ethylsulfonyl)piperidin-3-yl)-5-(*S)-(2-methyl-4-phenoxyphenyl)-4-oxo-4,5-dihydro-3H-1-thia-3,5,8-triazaacenaphthylene-2-carboxamide] — higher, 7.2
- C=CC(=O)N1CCC[C@@H](NC(=O)c2sc3nccc4c3c2NC(=O)N4c2cccc(OC(C)C)c2)C1 [Example 565, (R)—N-(1-Acryloylpiperidin-3-yl)-5-(3-isopropoxyphenyl)-4-oxo-4,5-dihydro-3H-1-thia-3,5,8-triazaacenaphthylene-2-carboxamide] — higher, 7.0

same assay, conditions: unphosphorylated-BTK kinase domain, 60 minutes incubation, 50 nM Tracer 236; pIC50 = negative log of the IC50 in molar

Point of comparison: `O=C(N[C@@H]1CCCNC1)c1sc2nccc3c2c1NC(=O)N3c1ccc(Cl)cc1` [Example 951, (R)-5-(4-Chlorophenyl)-4-oxo-N-(piperidin-3-yl)-4,5-dihydro-3H-1-thia-3,5,8-triazaacenaphthylene-2-carboxamide], “BTK_I_binding pIC50” value 5.1. Against it:
- CC(=O)N1CC[C@H](NC(=O)c2sc3nccc4c3c2NC(=O)N4c2ccc(Oc3ccccc3)cc2)C1 [Example 924, (S)—N-(1-Acetylpyrrolidin-3-yl)-4-oxo-5-(4-phenoxyphenyl)-4,5-dihydro-3H-1-thia-3,5,8-triazaacenaphthylene-2-carboxamide] — higher, 6.3
- O=C(N[C@@H]1CCNC1)c1sc2nccc3c2c1NC(=O)N3c1ccc(Oc2ccccc2)cc1 [Example 911, (R)-4-Oxo-5-(4-phenoxyphenyl)-N-(pyrrolidin-3-yl)-4,5-dihydro-3H-1-thia-3,5,8-triazaacenaphthylene-2-carboxamide] — higher, 6.6
- CN(C)c1ccc(N2C(=O)Nc3c(C(=O)N[C@@H]4CCCNC4)sc4nccc2c34)cc1 [Example 949, (R)-5-(4-(Dimethylamino)phenyl)-4-oxo-N-(piperidin-3-yl)-4,5-dihydro-3H-1-thia-3,5,8-triazaacenaphthylene-2-carboxamide] — within 0.2 log units, 5.2
